Experimental data taken from US20230117034A1, “PYRAZOLOTRIAZINES” (Bayer Aktiengesellschaft, priority 2019, published 2023).

Columns and labels:
[1] = tested on: BRCA1 mRNA expression in MDA-MB-231 cells; experiment: qRT-PCR assay: BRCA1 mRNA expression in MDA-MB-231; assay type: cell-based, human; settings: Homo sapiens, MDA-MB-231, Inhibition of BRCA1 mRNA expression in MDA-MB-231 cells; median; read-out: RTqPCR-MDA-MB-231, IC50, BRCA1 (median)
Procedure, shortened: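 GAPDH-normalised RT-qPCR measures the transcript after 24 h continuous compound treatment of cells seeded at 200,000/well one day earlier.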

[2] = target: T1, CDK12 protein level in CAL-120 breast cancer cells (Homo sapiens, UniProt Q9NYV4); experiment: CDK12 protein level: Protein Simple (CDK12, CAL-120); assay type: cell-based; settings: CAL-120 cells, 18 h with compound, CDK12/HSP90 peak area ratio vs vehicle, median, read-out: CDK12 protein level in CAL-120 breast ca cells, DC50-[mol/l] (median)
T1 construct: endogenous in cells; host or cells: CAL-120 human breast cancer cells (DSMZ ACC 459)
Protocol: CAL-120 human breast cancer cells (DSMZ ACC 459) were seeded at 300,000 cells/well in 6-well plates containing 2 mL of growth medium (DMEM, 10% FCS, glutamine) and incubated for 24 h at 37° C. in an humidified incubator. Test compounds were added at various concentrations, control wells received solvent (DMSO), and the plates were incubated for another 18 h at 37° C. Cells were washed 2 times with PBS and lysed in 75 microL lysis buffer (MSD-Puffer (MSD, #R60TX-2), +1% 505S+PhosSTOP (Roche #04906837001)+complete mini (Roche #04693159001)) by scraping. The lysates were pushed 2 times through Qiashedders followed by centrifugation at 14,000 rpm for 30-50 sec. The supernatant was stored at −20° C. Proteins were separated by applying 0.4 microgramms of protein lysate to Protein Simple 66-440 kDa (Protein Simple #SM-S002) size assay columns on a PEGGY SUE or SALLY SUE equipment according to the supplier's manual. CDK12 and HSP90 (loading control) were detected using anti-human CDK12 antibody (Cell Signaling Technologies (CST) #11793) at 1:25 dilution and anti-human HSP90 antibody (CST #4877) at 1:5,000 dilution. CDK12 and HSP90 peak areas were determined using Protein Simple Compass software. Ratio of CDK12/HSP90 peak areas were calculated for each sample, and […] values (degrading concentration to achieve 50% reduction relative to vehicle treated control) were determined by means of a 4 parameter fit.

[3] = tested on: MDA-MB-231, human breast cancer cells; experiment: Proliferation assay MDA-MB-231 (crystal violet, 4 days); assay type: cell-based; settings: Homo sapiens, MDA-MB-231, 96 h, MDA-MB-231 cells, median, read-out: Prolif-MDA MB-231, IC50-[mol/l] (median)
Procedure, shortened: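 Following a 24 h attachment in 10% fetal calf serum medium, cells receive test substance over 0.01-10 µmol/L for 4 days. Dye retained by fixed cells is eluted and read at 595 nm; cell number change is referenced to day-0 and untreated wells.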

[4] = target: T2, CYCLIN K (nuclear staining in CAL-120 cells) (Homo sapiens, UniProt O75909); experiment: CYCLIN K nuclear protein level: immunofluorescence high content analysis (CAL-120); assay type: cell-based; settings: 24 h, 50% reduction of nuclear CCNK staining intensity, median, read-out: CYCLIN K degradation IF, DC50-[mol/l] (median)
T2 construct: endogenous in cells; host or cells: CAL-120 human breast cancer cells (DSMZ ACC 459)
Procedure, shortened: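 CAL-120 breast cancer cells treated in dose-response for 24 h at 37 °C, PFA-fixed and immunostained for cyclin K with Hoechst counterstain. Confocal imaging quantified nuclear intensity; DC50 is the concentration giving 50% reduction of nuclear CCNK staining, normalized to DMSO and control.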

[5] = tested on: BRCA1 mRNA expression in CAL-120 cells; experiment: qRT-PCR assay: BRCA1 mRNA expression in CAL-120; assay type: cell-based; settings: Homo sapiens; Inhibition of BRCA1 mRNA expression in CAL-120 cells; median; read-out: RTqPCR-CAL-120, IC50, BRCA1 (median)
Protocol: 3. qRT-PCR Assay: BRCA, ATR, MCL1 in MDA-MB-231, CAL-120
Tissue cultured human MDA-MB-231 human breast cancer cells were plated in 500 microL per well at 200,000 cells/well in a 24 well microtiter plate. After 24 h, the cells were exposed continuously for 24 h to test substances (substances were added with Tecan HP 0300 Dispenser). RNA was prepared using Qiagen RNeasy MiniKit (#74106), RNA was quantified using a NanoDrop Equipment, and 600 nano gamms of RNA was coverted to cDNA using a SuperScript VILO kit (Thermofisher #11755050) followed by qPCR amplification. BRCA1 and ATR gene expression was measured by RT-qPCR and normalised to GAPDH housekeeping gene expression. qPCR primer sets have been purchased from Thermo Fisher Scientific/Applied Biosystems: BRCA1, #Hs 01556193; ATR, #Hs 00992123; GAPDH, #Hs 03929097.

T2 sequence (O75909 whole entry): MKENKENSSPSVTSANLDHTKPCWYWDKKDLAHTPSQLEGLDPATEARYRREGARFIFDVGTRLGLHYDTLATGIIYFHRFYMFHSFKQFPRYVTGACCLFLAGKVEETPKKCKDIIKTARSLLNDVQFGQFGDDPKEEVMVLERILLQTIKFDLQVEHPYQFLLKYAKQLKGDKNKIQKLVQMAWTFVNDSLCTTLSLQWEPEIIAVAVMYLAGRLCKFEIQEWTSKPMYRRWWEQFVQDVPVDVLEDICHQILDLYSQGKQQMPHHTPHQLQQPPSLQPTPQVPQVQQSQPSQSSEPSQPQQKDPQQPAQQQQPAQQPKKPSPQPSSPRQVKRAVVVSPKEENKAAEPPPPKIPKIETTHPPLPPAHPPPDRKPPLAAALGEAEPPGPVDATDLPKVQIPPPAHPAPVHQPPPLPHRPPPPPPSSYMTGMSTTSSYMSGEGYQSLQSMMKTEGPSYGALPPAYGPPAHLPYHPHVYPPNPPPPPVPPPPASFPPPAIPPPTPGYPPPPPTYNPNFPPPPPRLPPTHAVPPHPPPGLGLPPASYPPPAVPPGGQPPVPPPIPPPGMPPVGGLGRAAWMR
T2 sequence (Q9NYV4 whole entry partner): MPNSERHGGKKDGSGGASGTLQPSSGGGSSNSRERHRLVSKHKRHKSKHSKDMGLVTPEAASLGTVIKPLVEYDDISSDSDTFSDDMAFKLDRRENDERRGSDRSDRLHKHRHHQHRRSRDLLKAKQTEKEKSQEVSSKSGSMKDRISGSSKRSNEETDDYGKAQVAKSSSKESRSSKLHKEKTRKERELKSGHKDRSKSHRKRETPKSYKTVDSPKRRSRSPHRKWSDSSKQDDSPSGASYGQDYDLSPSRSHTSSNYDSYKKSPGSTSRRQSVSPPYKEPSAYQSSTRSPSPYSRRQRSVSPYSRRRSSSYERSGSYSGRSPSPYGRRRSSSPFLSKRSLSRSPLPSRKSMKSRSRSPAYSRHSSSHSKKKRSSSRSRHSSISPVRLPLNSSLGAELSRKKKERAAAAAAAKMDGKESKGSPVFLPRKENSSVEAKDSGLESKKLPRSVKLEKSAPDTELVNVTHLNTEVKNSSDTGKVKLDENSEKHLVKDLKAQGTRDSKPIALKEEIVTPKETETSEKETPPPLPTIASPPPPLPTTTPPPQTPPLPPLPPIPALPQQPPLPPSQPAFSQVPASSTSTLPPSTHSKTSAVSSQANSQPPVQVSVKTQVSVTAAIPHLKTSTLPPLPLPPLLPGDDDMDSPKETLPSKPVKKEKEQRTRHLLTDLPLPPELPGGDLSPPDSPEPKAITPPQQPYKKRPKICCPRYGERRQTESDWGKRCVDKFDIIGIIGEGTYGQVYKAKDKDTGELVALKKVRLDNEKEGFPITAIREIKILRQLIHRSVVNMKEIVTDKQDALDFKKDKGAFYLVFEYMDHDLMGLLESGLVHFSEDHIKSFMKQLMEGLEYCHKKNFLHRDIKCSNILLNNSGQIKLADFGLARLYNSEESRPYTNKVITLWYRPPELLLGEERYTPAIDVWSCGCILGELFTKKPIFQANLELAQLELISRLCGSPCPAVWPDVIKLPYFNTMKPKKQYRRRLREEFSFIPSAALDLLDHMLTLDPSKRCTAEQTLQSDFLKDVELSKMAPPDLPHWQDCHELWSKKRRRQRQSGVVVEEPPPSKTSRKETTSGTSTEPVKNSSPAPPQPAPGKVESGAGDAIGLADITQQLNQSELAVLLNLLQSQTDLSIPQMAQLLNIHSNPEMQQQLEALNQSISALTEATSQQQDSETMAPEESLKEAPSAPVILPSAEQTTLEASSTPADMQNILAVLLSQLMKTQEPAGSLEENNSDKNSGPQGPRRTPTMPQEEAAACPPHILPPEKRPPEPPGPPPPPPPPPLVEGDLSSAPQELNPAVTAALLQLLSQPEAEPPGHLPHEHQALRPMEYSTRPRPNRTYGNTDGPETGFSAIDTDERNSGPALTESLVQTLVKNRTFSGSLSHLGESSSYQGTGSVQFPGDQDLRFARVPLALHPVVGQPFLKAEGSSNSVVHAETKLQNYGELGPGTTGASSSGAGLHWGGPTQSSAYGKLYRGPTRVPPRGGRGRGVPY
T1 sequence (Q9NYV4 whole entry): as the sequence (Q9NYV4 whole entry partner) above
T1 sequence (O75909 whole entry partner): as the sequence (O75909 whole entry) above

Compound	IC50 [1]	DC50 [2]	IC50 [3]	DC50 [4]	IC50 [5]
NCCc1cccc2[nH]c(CNc3nc(N4CCOCC4)nc4c(Br)cnn34)nc12 [Example 112, N-{[7-(2-aminoethyl)-1H-benzimidazol-2-yl]methyl}-8-bromo-2-(morpholin-4-yl)pyrazolo[1,5-a][1,3,5]triazin-4-amine]	23.7 nM	58.8 nM	186 nM		
Brc1cnn2c(NCc3nc4ccccc4[nH]3)nc(N3CCOCC3)nc12 [Example 4, N-[(1H-benzimidazol-2-yl)methyl]-8-bromo-2-(morpholin-4-yl)pyrazolo[1,5-a][1,3,5]triazin-4-amine]	7.13 nM	0.476 nM	25.3 nM	2.46 nM	7.06 nM
CN1CCN(c2nc(NCc3nnc(-c4cccc(F)c4)[nH]3)n3ncc(Br)c3n2)CC1 [Example 136, 8-bromo-N-{[5-(3-fluorophenyl)-4H-1,2,4-triazol-3-yl]methyl}-2-(4-methylpiperazin-1-yl)pyrazolo[1,5-a][1,3,5]triazin-4-amine]	33.8 nM		26.4 nM	0.464 nM	
Cc1ccc2[nH]c(CNc3nc(N4CCN(C)CC4)nc4c(Br)cnn34)nc2c1 [Example 158, 8-bromo-N-[(5-methyl-1H-benzimidazol-2-yl)methyl]-2-(4-methylpiperazin-1-yl)pyrazolo[1,5-a][1,3,5]triazin-4-amine]	0.883 nM		4.24 nM	0.367 nM	
C[C@@H]1CN(c2nc(NCc3nc4ccccc4[nH]3)n3ncc(Br)c3n2)C[C@H](C)N1 [Example 142, N-(1H-benzimidazol-2-ylmethyl)-8-bromo-2-[(3R,5S)-3,5-dimethylpiperazin-1-yl]pyrazolo[1,5-a][1,3,5]triazin-4-amine]	19.1 nM		23.7 nM	0.163 nM	
CCN1CCN(c2nc(NCc3nc4ccccc4[nH]3)n3ncc(Br)c3n2)CC1 [Example 137, N-[(1H-benzimidazol-2-yl)methyl]-8-bromo-2-(4-ethylpiperazin-1-yl)pyrazolo[1,5-a][1,3,5]triazin-4-amine]	205 nM		192 nM	4.68 nM	
COc1ccc2[nH]c(CNc3nc(N4CCN(C)CC4)nc4c(Br)cnn34)nc2c1 [Example 161, 8-bromo-N-[(5-methoxy-1H-benzimidazol-2-yl)methyl]-2-(4-methylpiperazin-1-yl)pyrazolo[1,5-a][1,3,5]triazin-4-amine]	2.53 nM		11.3 nM	1.3 nM	
CN1CCN(c2nc(NCc3nc4cc(Cl)ccc4[nH]3)n3ncc(Br)c3n2)CC1 [Example 163, 8-bromo-N-[(5-chloro-1H-benzimidazol-2-yl)methyl]-2-(4-methylpiperazin-1-yl)pyrazolo[1,5-a][1,3,5]triazin-4-amine]	1.03 nM		3.96 nM	0.279 nM	
Cc1ccc2[nH]c(CNc3nc(N4CCOCC4)nc4c(Br)cnn34)nc2c1 [Example 157, 8-bromo-N-[(5-methyl-1H-benzimidazol-2-yl)methyl]-2-(morpholin-4-yl)pyrazolo[1,5-a][1,3,5]triazin-4-amine]	0.903 nM		4.79 nM	0.119 nM	
C[C@@H]1CN(c2nc(NCc3nc4ccccc4[nH]3)n3ncc(Br)c3n2)CCN1C [Example 135, N-[(1H-benzimidazol-2-yl)methyl]-8-bromo-2-[(3R)-3,4-dimethylpiperazin-1-yl]pyrazolo[1,5-a][1,3,5]triazin-4-amine]	30 nM		44 nM	0.554 nM	
CN1CCN(c2nc(NCc3nc4c(F)c(F)ccc4[nH]3)n3ncc(Br)c3n2)CC1 [Example 133, 8-bromo-N-[(4,5-difluoro-1H-benzimidazol-2-yl)methyl]-2-(4-methylpiperazin-1-yl)pyrazolo[1,5-a][1,3,5]triazin-4-amine]	4.23 nM		4.94 nM	0.0633 nM	
CN1CCN(c2nc(NCc3nc4cc(F)ccc4[nH]3)n3ncc(C4CC4)c3n2)CC1 [Example 164, 8-cyclopropyl-N-[(5-fluoro-1H-benzimidazol-2-yl)methyl]-2-(4-methylpiperazin-1-yl)pyrazolo[1,5-a][1,3,5]triazin-4-amine]	2.55 nM	1.08 nM	25.7 nM	1.12 nM	
